Source: ChEMBL document CHEMBL1157532, “Halichonadin F and the Cu(I) complex of halichonadin C from the sponge Halichondria sp” (2008)
Values after ≈ are worked out from the molar mass of the structure shown.

Tests used:
Type in all cases: functional
Cryptococcus neoformans = test: Antimicrobial activity against Cryptococcus neoformans
[1] = system: Trichophyton mentagrophytes; test: Antimicrobial activity against Trichophyton mentagrophytes
Micrococcus luteus = test: Antimicrobial activity against Micrococcus luteus

MIC (Cryptococcus neoformans): 16 µg/mL (≈ 72.3 µM)
MIC [1]: 16 µg/mL (≈ 72.3 µM)
MIC (Micrococcus luteus): 4 µg/mL (≈ 18.1 µM)
SMILES: C[C@@H]1CC[C@@H]2[C@@H]1[C@H]1[C@@H](CC[C@]2(C)N)C1(C)C [HALICHONADIN F]
